Source: patent US8318504B2, “MRP2 efflux pathway prognostic method” (priority 2009, dated 2012)

Assays:
ABCC3 = molecular target: T1, ABCC3 (Homo sapiens, UniProt O15438); experiment: ATP-dependent transport of CLF into Sf21 membrane vesicles containing ABCC3; format: biochemical
T1 construct: made in house; host or cells: Sf21 insect cells, baculovirus (gift from Borst); plasma membrane vesicles
Method: The production of recombinant baculovirus was as described by de Waart et al. [Liver Int 2006 April; 26(3):362-368]. ABCC3 and ABCG2-recombinant baculovirus were a kind gift from Borst [Breedveld P. et al., Cancer Res 2004 Aug. 15; 64(16):5804-5811 and Borst P. et al., J Biol Chem 2001 Dec. 7; 276(49):46400-46407.]. ABCB11-recombinant baculovirus was a kind gift from Thompson [Thompson R J et al., Gastroenterology 2002 November; 123(5):1649-1658]. Sf21 cells grown at 27° C. were infected with ABCB11, ABCC2, ABCC3 and ABCG2-cDNA containing baculovirus. Cells were harvested at 2-4 days after infection. Membrane vesicle preparation was as described by de Waart et al. [Liver Int 2006 April; 26(3):362-368].
Transport studies with membrane vesicles were performed using the rapid filtration technique as described by Heijn M et al. [Am J Physiol 1992 January; 262(1 Pt 1):C104-C110]. Radiolabel was measured with a scintillation counter. When CLF was used as a probe, filters were placed in a glass tube, 0.1% Triton-X-100 was added and the tubes vortexed. Samples were pipetted in 96-well plates (Kartell, Noviglio, Italy) and the amount CLF quantitated by measurement of fluorescence at λexe 485 nm and λcm 520 nm using a NovoStar (BMG-labtech, Offenburg, Germany). […]

OATP2B1 = molecular target: T2, OATP2B1 (Homo sapiens, UniProt O94956); experiment: Uptake of CLF into CHO cells expressing OATP2B1; format: cell-based; settings: 1 μmol/L CLF, 1 or 5 minutes
T2 construct: expressed in transfected cells; host or cells: CHO cells (stably transfected; Treiber et al. 2007)
T2 sequence (O94956 1-709): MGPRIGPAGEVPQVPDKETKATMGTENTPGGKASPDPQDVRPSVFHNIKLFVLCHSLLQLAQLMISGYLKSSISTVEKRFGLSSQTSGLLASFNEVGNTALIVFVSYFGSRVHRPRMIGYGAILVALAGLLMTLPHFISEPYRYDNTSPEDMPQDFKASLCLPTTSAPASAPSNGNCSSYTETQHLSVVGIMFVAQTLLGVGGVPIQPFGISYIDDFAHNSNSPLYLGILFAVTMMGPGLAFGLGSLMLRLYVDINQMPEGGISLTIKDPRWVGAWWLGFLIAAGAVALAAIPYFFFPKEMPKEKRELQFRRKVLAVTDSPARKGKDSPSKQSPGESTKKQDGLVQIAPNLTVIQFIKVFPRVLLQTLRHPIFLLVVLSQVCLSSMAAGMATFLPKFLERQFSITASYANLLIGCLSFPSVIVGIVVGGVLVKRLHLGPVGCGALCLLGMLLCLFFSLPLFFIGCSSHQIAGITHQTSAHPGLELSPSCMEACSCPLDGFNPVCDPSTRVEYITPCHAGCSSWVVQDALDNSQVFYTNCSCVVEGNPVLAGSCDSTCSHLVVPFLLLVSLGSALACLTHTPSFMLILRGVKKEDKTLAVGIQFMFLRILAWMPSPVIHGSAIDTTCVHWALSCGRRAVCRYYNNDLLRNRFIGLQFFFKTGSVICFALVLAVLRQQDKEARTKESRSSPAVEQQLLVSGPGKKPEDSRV
Method: cDNA for human NTCP [Hagenbuch et al., J Clin Invest 1994 March; 93(3): 1326-1331] was cut with EcoRV and HindI and the coding region ligated into pcDNA5/FRT (Invitrogen, Life-Technologies, Carlsbad, Calif.). CHO FlpIn cells (Invitrogen, Life-Technologies) were transfected with the resulting construct using Lipofectamine® 2000 (Invitrogen, Life-Technologies). Stably transfected cells were selected with 550 μg Hygromycin-B in HAM-F12 medium (Gibco, Invitrogen, Life-Technologies). Transfected cells were cloned with the limiting dilution method. […] To further characterize the cloned cells, immunofluorescence localization of NTCP using a polyclonal antibody against NTCP [Kullak-Ublick G et al., Gastroenterology 1997 October; 113(4):1295-1305] was performed as described by Huber R D et al. [Am J Physiol Cell Physiol 2007 February; 292(2):[…]-[…]]. CHO cells expressing OATP1B1, OATP1B3 and OATP2B1 were described previously [Treiber et al., DMD 35:1400-1407, 2007]. […] After complete solubilization, 1.5 ml was used to measure fluorescence in a Perkin-Elmer LS-5 luminescence-spectrometer set at λexe 486 nm (slit 10 nm) and λem 520 nm (slit 5 nm). Protein was determined with the bicinchoninic acid method using a kit from Interchim (Montfuçon, France). […]

T1 sequence (O15438 whole entry): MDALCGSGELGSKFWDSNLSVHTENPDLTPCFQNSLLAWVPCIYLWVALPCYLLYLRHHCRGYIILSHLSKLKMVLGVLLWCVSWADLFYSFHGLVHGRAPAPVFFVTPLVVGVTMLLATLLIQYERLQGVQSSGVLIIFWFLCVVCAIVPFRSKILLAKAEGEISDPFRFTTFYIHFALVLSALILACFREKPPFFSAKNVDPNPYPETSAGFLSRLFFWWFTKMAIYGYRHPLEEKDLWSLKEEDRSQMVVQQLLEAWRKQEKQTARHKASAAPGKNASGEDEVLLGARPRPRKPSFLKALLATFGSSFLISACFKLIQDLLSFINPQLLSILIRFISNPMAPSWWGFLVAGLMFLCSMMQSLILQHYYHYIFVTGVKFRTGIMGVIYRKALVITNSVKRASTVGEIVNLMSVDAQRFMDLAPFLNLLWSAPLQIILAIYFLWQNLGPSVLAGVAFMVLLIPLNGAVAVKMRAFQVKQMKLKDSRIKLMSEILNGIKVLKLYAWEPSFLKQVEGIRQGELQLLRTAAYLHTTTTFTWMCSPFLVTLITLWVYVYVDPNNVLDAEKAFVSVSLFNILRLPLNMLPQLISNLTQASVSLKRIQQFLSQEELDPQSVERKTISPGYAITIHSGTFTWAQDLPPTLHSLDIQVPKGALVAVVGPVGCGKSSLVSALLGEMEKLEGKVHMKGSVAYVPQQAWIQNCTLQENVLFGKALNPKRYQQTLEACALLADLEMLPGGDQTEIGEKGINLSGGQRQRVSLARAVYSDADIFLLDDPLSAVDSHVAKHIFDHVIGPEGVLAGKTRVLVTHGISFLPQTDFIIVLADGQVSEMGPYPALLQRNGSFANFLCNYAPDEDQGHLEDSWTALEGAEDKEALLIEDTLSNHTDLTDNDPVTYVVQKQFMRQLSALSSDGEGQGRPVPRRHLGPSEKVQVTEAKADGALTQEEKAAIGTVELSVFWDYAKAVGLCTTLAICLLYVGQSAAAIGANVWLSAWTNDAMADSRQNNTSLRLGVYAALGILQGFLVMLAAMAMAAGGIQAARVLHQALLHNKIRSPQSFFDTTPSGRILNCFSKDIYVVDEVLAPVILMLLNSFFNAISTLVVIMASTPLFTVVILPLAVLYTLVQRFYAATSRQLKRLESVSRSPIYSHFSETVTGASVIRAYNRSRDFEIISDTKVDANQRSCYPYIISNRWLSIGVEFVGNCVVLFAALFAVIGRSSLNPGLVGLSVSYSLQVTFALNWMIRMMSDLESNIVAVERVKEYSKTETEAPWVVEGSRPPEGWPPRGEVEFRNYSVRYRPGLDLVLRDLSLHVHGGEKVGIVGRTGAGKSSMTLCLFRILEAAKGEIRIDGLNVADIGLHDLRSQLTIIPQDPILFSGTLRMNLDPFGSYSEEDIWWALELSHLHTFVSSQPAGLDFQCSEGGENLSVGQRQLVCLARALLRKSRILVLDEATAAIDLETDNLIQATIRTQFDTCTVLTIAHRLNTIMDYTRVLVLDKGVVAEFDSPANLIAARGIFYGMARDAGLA

`CC(CCC(=O)NC(CCCCNC(=S)Nc1ccc(-c2c3ccc(=O)cc-3oc3cc(O)ccc23)c(C(=O)O)c1)C(=O)O)C1CCC2C3C(O)CC4CC(O)CCC4(C)C3CC(O)C12C` (stereo not drawn) [CLF, cholyl lysyl fluorescein] was tested, and the “Vmax of ABCC3 mediated transport of CLF” value (ABCC3; 30 μg total protein, presence or absence of 4 mmol/L ATP) was 188±55 μmol CLF/mg protein/min, the “CLF transport in ABCC3 containing membrane vesicles” value (ABCC3; compared to control wild type Sf21 membrane vesicles) was “much higher CLF transport rates” and the “uptake of CLF into OATP2B1 cells” value (OATP2B1) was “no uptake”.
